Data reported in a compilation of properties of binary mixtures (doi:10.1021/je800965t).

Assay: xn = mol fraction of the nth substance listed
Conditions: 101 kPa

SMILES: O + CCCn1cc[n+](C)c1C.F[B-](F)(F)F
- viscosity (298.15 K, x1 = 1): 0.89 mPa·s
- viscosity (303.15 K, x1 = 1): 0.8 mPa·s
- viscosity (313.15 K, x1 = 1): 0.65 mPa·s
- viscosity (318.15 K, x1 = 1): 0.6 mPa·s
- viscosity (323.15 K, x1 = 1): 0.55 mPa·s
- viscosity (333.15 K, x1 = 1): 0.47 mPa·s
- viscosity (343.15 K, x1 = 1): 0.4 mPa·s

SMILES: CCCn1cc[n+](C)c1C.F[B-](F)(F)F + O
- viscosity (298.15 K, x2 = 0): 377 mPa·s
- viscosity (298.15 K, x2 = 0.0939): 225 mPa·s
- viscosity (298.15 K, x2 = 0.2833): 85.3 mPa·s
- viscosity (298.15 K, x2 = 0.3944): 50.6 mPa·s
- viscosity (298.15 K, x2 = 0.4987): 31.29 mPa·s
- viscosity (298.15 K, x2 = 0.5995): 19.71 mPa·s
- viscosity (298.15 K, x2 = 0.6985): 12.03 mPa·s
- viscosity (298.15 K, x2 = 0.8009): 6.69 mPa·s
- viscosity (298.15 K, x2 = 0.8988): 3.23 mPa·s
- viscosity (303.15 K, x2 = 0): 272 mPa·s
- viscosity (303.15 K, x2 = 0.0939): 168 mPa·s
- viscosity (303.15 K, x2 = 0.2833): 66.8 mPa·s
- viscosity (303.15 K, x2 = 0.5995): 16.21 mPa·s
- viscosity (303.15 K, x2 = 0.6985): 10.04 mPa·s
- viscosity (303.15 K, x2 = 0.8009): 5.67 mPa·s
- viscosity (303.15 K, x2 = 0.8988): 2.78 mPa·s
- viscosity (308.15 K, x2 = 0): 202 mPa·s
- viscosity (308.15 K, x2 = 0.0939): 127.9 mPa·s
- viscosity (308.15 K, x2 = 0.1932): 81.1 mPa·s
- viscosity (308.15 K, x2 = 0.4987): 21.07 mPa·s
- viscosity (308.15 K, x2 = 0.6985): 8.53 mPa·s
- viscosity (308.15 K, x2 = 0.8009): 4.9 mPa·s
- viscosity (308.15 K, x2 = 0.8988): 2.42 mPa·s
- viscosity (313.15 K, x2 = 0): 152 mPa·s
- viscosity (313.15 K, x2 = 0.0939): 99.3 mPa·s
- viscosity (313.15 K, x2 = 0.1932): 64.5 mPa·s
- viscosity (313.15 K, x2 = 0.2833): 43.2 mPa·s
- viscosity (313.15 K, x2 = 0.3944): 27.18 mPa·s
- viscosity (313.15 K, x2 = 0.4987): 17.63 mPa·s
- viscosity (313.15 K, x2 = 0.5995): 11.52 mPa·s
- viscosity (313.15 K, x2 = 0.6985): 7.31 mPa·s
- viscosity (313.15 K, x2 = 0.8009): 4.23 mPa·s
- viscosity (313.15 K, x2 = 0.8988): 2.14 mPa·s
- viscosity (318.15 K, x2 = 0): 117.4 mPa·s
- viscosity (318.15 K, x2 = 0.2833): 35.71 mPa·s
- viscosity (318.15 K, x2 = 0.3944): 22.79 mPa·s
- viscosity (318.15 K, x2 = 0.4987): 14.97 mPa·s
- viscosity (318.15 K, x2 = 0.5995): 9.88 mPa·s
- viscosity (318.15 K, x2 = 0.6985): 6.34 mPa·s
- viscosity (318.15 K, x2 = 0.8009): 3.71 mPa·s
- viscosity (318.15 K, x2 = 0.8988): 1.89 mPa·s
- viscosity (323.15 K, x2 = 0): 92.3 mPa·s
- viscosity (323.15 K, x2 = 0.0939): 63.3 mPa·s
- viscosity (323.15 K, x2 = 0.1932): 42.8 mPa·s
- viscosity (323.15 K, x2 = 0.2833): 29.65 mPa·s
- viscosity (323.15 K, x2 = 0.3944): 19.32 mPa·s
- viscosity (323.15 K, x2 = 0.4987): 12.87 mPa·s
- viscosity (323.15 K, x2 = 0.5995): 8.58 mPa·s
- viscosity (323.15 K, x2 = 0.6985): 5.55 mPa·s
- viscosity (323.15 K, x2 = 0.8009): 3.29 mPa·s
- viscosity (323.15 K, x2 = 0.8988): 1.69 mPa·s
- viscosity (333.15 K, x2 = 0): 60.4 mPa·s
- viscosity (333.15 K, x2 = 0.2833): 21.37 mPa·s
- viscosity (333.15 K, x2 = 0.3944): 14.38 mPa·s
- viscosity (333.15 K, x2 = 0.4987): 9.78 mPa·s
- viscosity (333.15 K, x2 = 0.8009): 2.62 mPa·s
- viscosity (333.15 K, x2 = 0.8988): 1.39 mPa·s
- viscosity (343.15 K, x2 = 0): 40.7 mPa·s
- viscosity (343.15 K, x2 = 0.1932): 21.84 mPa·s
- viscosity (343.15 K, x2 = 0.2833): 16.02 mPa·s
- viscosity (343.15 K, x2 = 0.3944): 11.04 mPa·s
- viscosity (343.15 K, x2 = 0.4987): 7.66 mPa·s
- viscosity (343.15 K, x2 = 0.5995): 5.3 mPa·s
- viscosity (343.15 K, x2 = 0.6985): 3.53 mPa·s
- viscosity (343.15 K, x2 = 0.8009): 2.15 mPa·s
- viscosity (343.15 K, x2 = 0.8988): 1.16 mPa·s
